Reference: US5196577A, “Compound marked with tritium, its preparation and its use in particular in the determination of the affinity of retinoids for their nuclear receptors and their cytosolic binding protein” (Centre International de Recherches Dermatologiques, priority 1988, dated 1993)
Entries after “also recorded” stand apart in the source; their conditions may differ. Read-outs that look alike come from different tables or passages of the source.

Columns and labels:
[1] = system: F9 cells; experiment: Production of secreted plasminogen activator by differentiating F9 cells (biological activity, CPA50); format: cell-based, murine; settings: for EC50: Mus musculus, read-out: BIOLOGICAL ACTIVITY CPA50
Description: The biological activity of the retinoids can be measured on the F9 cells by quantifying the production of the plasminogen activator secreted consecutively with the differentiation of said cells, caused by the retinoids. CPA50 is the concentration of retinoids causing an induction of 50% of the maximum of the secreted plasminogen activator. By comparing the IC50 and CPA50 values on Table 1, it can be noted that there is an excellent correlation between the affinity of the retinoids for the RARs and their biological activity (see also the straight regression line of FIG. 4). The only exception is retinoic acid itself. […] In effect, the IC50 measurement is carried out after an incubation of 3 hours, while the CPA50 measurement is carried out after a incubation of 3 days.

[2] = system: retinoic acid nuclear receptors (RARs); experiment: Direct fixing of tritiated ligand on RARs of F9 cells (HPSEC of nucleosol); format: binding, murine; settings: 200 nM tritiated ligand; for specific fixing on RARs in presence of excess cold homolog ligand: 100-fold excess (20000 nM) cold ligand, FIG. 1; for ligand fixed to the RARs per cell: FIG. 2
Description: (§1) Cultures of F9 cells of murin embryonic carcinoma (normally four 90 mm dishes containing in total 2-4×10^7 cells per incubation condition) were washed once with PBS (saline phosphate buffer) and incubated for 3 hours in a medium, without serum, supplemented with the marked retinoid in the absence or the presence of a cold retinoid homolog or heterolog (to verify the specificity and for comparison experiments). The cells were then detached with a trypsin EDTA mixture and numbered with a Burker hemocytometer. The nucleosol containing RARs was extracted from the purified nuclei using the method described by Daly and Redfern (1987) (that is, after treatment using DNAase and NaCl 0.6M), and analyzed using high performance exclusion chromatography (HPSEC). 50 μl of marked extract were injected on a 9×250 mm GF250 column (Dupont de Nemours). The elution was carried out in a buffer 0.3M KH2 PO4 pH 7.8 at a rate of 1 ml/min. The protein content was followed by measuring the optical density at 280 nm. 28 fractions of 0.3 ml each were collected and counted in Picofluor (Packard) scintillating agent. For each retinoid concentration, the number of bonded molecules was determined using the surface of the radioactivity peak and the calculated concentration of demi-saturation (C50). […] The dose-response curves and the competition curves were analyzed on a computer through non-linear regression using the various forms of the Clark equation.
When the above-describe method is used and the F9 cells are incubated with the compound of example 1 at a concentration of 200 nM, a single radioactivity peak is observed in the nuclear extract (FIG. 1B). The molecular weight corresponding to the average fraction of the peak is approximately 45 kDa, a number close to the molecular weight of human RARs, as has been calculated from the sequence of their DNAc (Petkovich et al, 1987; Brand et al, 1988), and is compatible with the 4S sedimentation coefficient of murin receptors (Daly & Redfer, 1987). The fixing is specific since it is abolished when the cells are coincubated with an excess of 100 times of the cold compound I (FIG. 1B). There is no CRABP in the nucleosoilc extract of F9, as already underlined by Daly and Redfern (1987).
It can be noted that the radioactive peak elutes at the same position as with the compound of example 1.
The two compounds were used at a concentration of 200 nM. The quantity of ligand bonded to the RARs is expressed in molecules per cell.
To determine the concentration of the compound of example 1 giving 50% saturation of the RARs (C50), a saturation curve has been traced expressing the surface of the radioactive peak as a function of varied concentrations of the compound of example 1. The C50 is between 0.5 and 2 nM.

[3] = molecular target: T1, CRABP (Rattus norvegicus, UniProt P62966); experiment: Competition with the claimed marked compound for CRABP; format: binding
T1 construct: rat testicle cytosol containing CRABP; from tissue
T1 sequence (P62966 whole entry): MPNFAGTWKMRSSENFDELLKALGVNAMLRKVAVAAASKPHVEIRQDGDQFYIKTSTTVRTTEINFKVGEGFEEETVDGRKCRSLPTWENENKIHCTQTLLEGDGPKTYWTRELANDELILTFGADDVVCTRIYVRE
Description: These competition experiments are carried out in the following manner: a fixed quantity of radioactive ligand (corresponding substantially to the demi-saturation, in our case 4 nM) is mixed with increasing quantities of cold ligand (non-radioactive). Then the binding protein is added and the quantity of radioactive ligand fixed to the balance is determined (in % of the initial fixing in the absence of cold ligand, for the quantity of CRABP under consideration).
From the competition curves, the IC50 (concentration of cold ligand reducing the attachment of the tritiated ligand by 50%) is determined. This IC50 value enables the calculation in each case of the dissociation constant from the balance (Kd) for the cold ligand.

[4] = system: retinoic acid nuclear receptors (RARs); experiment: Competition with the tritiated compound of example 1 for RARs in F9 cells (HPSEC of nucleosol); format: binding, murine; settings: for IC50: competition with 2 nM tritiated compound of example 1, incubation of 3 hours, read-out: AFFINITY RARs:IC50
Description: as §1
In view of its stability and its excellent affinity for the RARs, the compound of example 1 in principle enables the determination by competition of the affinity of no matter which retinoid for the RARs.
The […] profiles are obtained after incubation of the F9 cells with 2×10^-9 M of the compound of example 1 in the absence (- ) or in the presence of 10^-9 M(.quadrature.-.quadrature.), 10^-8 M (- ), 10^-7 M (Δ-Δ), 10^-6 M (- ) of cold competitors. I=the unmarked compound of example 1. RA=retinoic acid. For each competition concentration, the peak surface is expressed as a percentage of the surface obtained with the compound of example 1 without competition.
By measuring the surface of the radioactive peak for each concentration of cold competition, it is possible to trace the competition sigmoids. Data processing of these curves enables the determination of the IC50 (50% inhibiting concentration) of each retinoid.

[5] = Stability of ligand (general statements); format: physicochemical; settings: statement in words, no data
[6] = molecular target: T1, CRABP; experiment: Direct fixing (saturation) of tritiated ligand on CRABP in rat testicle cytosol; format: binding; settings: for non-specific fixing as part of total fixing on CRABP: 1 μM cold homolog ligand; for concentration of CRABP in rat testicle cytosol found with the marked retinoid: saturating concentration of marked retinoid
Description: The difference (- ) represents the specific bond.
The total fixing (non-specific+specific (1-1) is obtained by incubation of increasing concentrations (up to a maximum of 125 nM) of the claimed compound with a constant quantity (0.3 ml) of a rat testicle homogenate (CRABP-rich organ). The non-specific fixing of the tritiated compound is determined in parallel, by measuring the fixing with increasing concentrations of the radioactive ligand in the presence of a large excess (1 μM) of cold homolog ligand (.quadrature.-.quadrature.). An incubation time of two hours is necessary for the establishment of balanced conditions.
Once the balance is achieved, the tritiated CRABP-ligand complex is separated from the non-bonded ligand by filtration on a Sephadex G25 exclusion gel column (BIO-Rad econo columns, 0.5× 20 cm): the complex is eluted (elution peak at 2.5 ml), while the non-bonded ligand is retained in totality on the column. […] The elution is done directly in scintillation tubes and the radioactivity is measured by counting.
The difference between the total fixing curve (- )and the non-specific fixing curve (.quadrature.-.quadrature.) gives the specific fixing curve ( - ). Analysis of this curve provides the dissociation constant with the balance (Kd), which is the concentration of product necessary to saturate 50% of the CRABP. This constant is a measurement of the affinity of the ligand for its binding protein, with the Kd being inversely proportional to the affinity (the lower the Kd, the greater the affinity).
The concentration of CRABP in the rat testicle cytosol used for the experiment can be determined in binding experiments where the marked retinoids are used at a saturating concentration.

[7] = by radiolysis, oxidation and photolysis; background statement; cited from earlier work
[8] = 72 h, concentration causing induction of 50% of the maximum of secreted plasminogen activator, F9 cells, incubation of 3 days
[9] = Table 1, Kd calculated from competition IC50, radioligand about 4 nM, read-out: AFFINITY CRABP:Kd

Row | Compound | EC50 [1, 8] [nM] | Kd [3, 9] [nM] | IC50 ([4]; F9 cells) [nM] | EC50 ([1]; F9, 72 h) [nM] | Kd [3] [nM] | also measured
1 | CC1(C)CCC(C)(C)c2cc3cc(-c4ccc(C(=O)O)cc4)ccc3cc21 [Compound I, 4-(5,6,7,8-tetrahydro-5,5,8,8-tetramethyl-2-anthracenyl) benzoic acid] | 1 | 4 | 0.8 |  |  | specific fixing on RARs in presence of excess cold homolog ligand [2]: abolished; affinity for the RARs relative to retinoic acid ([4]; from IC50 of Table 1): six times
2 | CC1(C)CCC(C)(C)c2cc(-c3cc4ccc(C(=O)O)cc4s3)ccc21 [Compound IV, 2(5,6,7,8-tetrahydro-5,5,8,8-tetramethyl-2-naphthyl)-6-benzo(b)thiophene carboxylic acid] |  |  | 77 | 53 | 2 | 
3 | CC1(C)CCC(C)(C)c2cc(-c3ccc4cc(C(=O)O)ccc4c3)ccc21 [Compound V, 6(5,6,7,8-tetrahydro-5,5,8,8-tetramethyl-2-naphthyl)-2-naphthoic acid] | 66 | 20 | 12 |  |  | 
4 | CC1(C)CCC(C)(C)c2cc(-c3cc4ccc(C(=O)O)cc4o3)ccc21 [Compound VI, 2(5,6,7,8-tetrahydro-5,5,8,8-tetramethyl-2-naphthyl)-6 benzo(b)furan carboxylic acid] |  |  | 770 | 670 | 200 | 
5 | CC1(C)CCC(C)(C)c2cc(C(=O)Nc3ccc(C(=O)O)cc3)ccc21 [Compound VII, 4(5,6,7,8-tetrahydro-5,5,8,8-tetramethyl-2-naphthamido) benzoic acid] | 85 | 200 | 76 |  |  | 
6 | Cc1c(C(=O)O)cc(S)c2cc(-c3ccc4c(c3)C(C)(C)CCC4(C)C)ccc12 [Compound VIII, 1methyl-4-thiol-6-(5,6,7,8-tetrahydro-5,5,8,8-tetramethyl-2-naphthyl)-2-nphthoic acid] |  |  | > 10000 | > 10000 | 200 | biological activity (in words) ([1]; F9 cells, FIG. 4): biologically inactive; also recorded: below the threshold of detection; affinity for the RARs (in words) ([4]; F9 cells, FIG. 4): below the threshold of detection
7 | CC1(C)CCC(C)(C)c2cc3cc(-c4ccc(C(=O)O)cc4)ccc3cc21 [Example 1, 4-(5,6,7,8-tetrahydro-5,5,8,8-tetramethyl-2-anthracenyl) benzoic acid marked with tritium] |  |  |  |  |  | stability of the ligand [5]: very stable; ligand fixed to the RARs per cell [2]: approximately 4,000 molecules per cell; character of non-specific fixing on CRABP ([6]; in the range of concentrations used, rat testicle): linear and non-saturable; character of specific fixing on CRABP ([6]; rat testicle): saturable and reversible; non-specific fixing as part of total fixing on CRABP ([6]; rat testicle): less than 10%; concentration of CRABP in rat testicle cytosol found with the marked retinoid [6]: 10-12 pmol/mg protein
8 | CC1=C(/C=C/C(C)=C/C=C/C(C)=C/C(=O)O)C(C)(C)CCC1 [Retinoic acid] |  |  | 5 | 350 |  | stability of the ligand [5]: high instability; specific fixing on RARs in presence of excess cold homolog ligand [2]: the peak is not observed; ligand fixed to the RARs per cell [2]: approximately 4,000 molecules per cell; degradation of retinoic acid [7]: rapidly degraded; non-specific fixing as part of total fixing on CRABP ([6]; rat testicle): approximately 25%; concentration of CRABP in rat testicle cytosol found with the marked retinoid [6]: 10-12 pmol/mg protein
9 | CC1=C(/C=C/C(C)=C/C=C/C(C)=C/CO)C(C)(C)CCC1 [Retinol] | 2500 | 600 | 1400 |  |  | 
